Laboratory results taken from ChEMBL document CHEMBL3992492, “Sulfoximines from a Medicinal Chemist's Perspective: Physicochemical and in vitro Parameters Relevant for Drug Discovery” (Eur J Med Chem, 2017).
Values after ≈ are worked out from the molar mass of the structure shown.

Assays:
[1] = in vitro; details: human, liver microsomes
Description: Half life in human liver microsomes at 1 uM in presence of NADPH by LC-MS/MS method

[2] = in vitro; details: human, liver microsomes; remark: listed apart in the source
[3] = in vitro; details: PAMPA, pH 7.4
Description: Apparent permeability of the compound at pH 7.4 by PAMPA

[4] = Apparent partition coefficient, log P of the compound in n-octanol/aqueous mixture by potentiometric titration method; format: physicochemical
[5] = physchem; details: acetonitrile/water mixture
Description: Solubility of the compound in acetonitrile/water mixture at 10 mM measured after 24 by HPLC-UV method

[6] = physchem; details: octanol/water, pH 10
[7] = physchem; details: aqueous
[8] = Drug degradation in pH <1 HCl after 7 days by HPLC method
[9] = Drug degradation in pH >10 NH3 after 7 days by HPLC method
[10] = Dissociation constant, pKb of the compound in aqueous/organic mixture at pH 2 to 12 by potentiometric titration method; format: physicochemical; details: buffer

SMILES | half-life at 1 µM [1] [h] | hepatic extraction ratio at 1 µM [2] | Papp [3] [×10⁻⁶ cm/s] | logP [4] | solubility at 10000 µM [5] [µg/mL] | logP [6] | solubility thermodynamic [7] [µg/mL] | Drug degradation [8] [%] | Drug degradation [9] [%] | pKb [10]
C[S@@](=O)(=Nc1ccc(C(F)(F)F)cc1)c1ccccc1 | > 2.17 | < 0.23 | 3.5 | 3.7 | 17 (≈ 56.8 µM) | – | – | – | – | –
CS(=O)(=O)Oc1ccc(C(F)(F)F)cc1 | – | – | – | – | – | 4.3 | 300 (≈ 1250 µM) | – | – | –
CNS(C)(=O)=Nc1ccc(C(F)(F)F)cc1 (centres undefined) | > 2.17 | < 0.23 | 5 | – | > 54 | 1.6 | 800 (≈ 3170 µM) | – | – | –
CS(C)(=N)=NC(=O)Nc1ccc(C(F)(F)F)cc1 | – | – | 3.3 | – | > 68 | 0.4 | 500 (≈ 1790 µM) | < 10 | < 10 | 3.3
Cn1cc(N=S2(=O)CCCCC2)cn1 | > 2.17 | < 0.23 | 3.2 | -3.9 | 39 (≈ 183 µM) | – | – | – | – | –
CN=S(C)(=O)c1ccc(C(F)(F)F)cc1 (centres undefined) | > 2.17 | < 0.23 | 11 | – | > 54 | 0.1 | 2400 (≈ 10100 µM) | < 10 | < 10 | –
CS(=O)(=Nc1ccc(C(F)(F)F)cc1)C1CCOCC1 (centres undefined) | > 2.17 | < 0.23 | 9.6 | 2.5 | 46 (≈ 150 µM) | – | – | – | – | –
CN=S(=O)(NC)c1ccc(C(F)(F)F)cc1 (centres undefined) | > 2.17 | < 0.23 | 9.8 | – | – | 0.4 | 1200 (≈ 4760 µM) | < 10 | < 10 | –
CC(C)(C)OC(=O)c1ccc(C(F)(F)F)cc1 | – | – | – | – | 7 (≈ 28.4 µM) | 4.8 | 20 (≈ 81.2 µM) | – | – | –
CS(C)(=O)=NC(=O)Nc1ccc(C(F)(F)F)cc1 | > 2.17 | < 0.23 | 4.3 | – | 44 (≈ 157 µM) | 1.6 | 40 (≈ 143 µM) | < 10 | 14 | –
C[S+]([O-])c1ccc(C(F)(F)F)cc1 (centres undefined) | – | – | – | – | > 46 | -0.3 | 11100 (≈ 53300 µM) | – | – | –
CS(=O)(=Nc1ccc(C(F)(F)F)cc1)C1CC1 (centres undefined) | > 2.17 | < 0.23 | 7.8 | 2.3 | 40 (≈ 152 µM) | – | – | – | – | –
O=S1(=Nc2cc(C(F)(F)F)cc(C(F)(F)F)c2)CCCCC1 | 0.1 | 0.87 | 3.3 | 4 | < 1 | – | – | – | – | –
CC(C)(C)NC(=O)Nc1ccc(C(F)(F)F)cc1 | > 2.17 | < 0.23 | 5.1 | – | < 1 | 3.4 | 20 (≈ 76.8 µM) | – | – | –
O=S1(=Nc2ccncc2)CCCCC1 | > 2.17 | < 0.23 | 5.7 | -2.6 | 42 (≈ 200 µM) | – | – | – | – | 7.2
O=S1(=Nc2ccc(F)cc2)CCCCC1 | 2 | 0.25 | 9.5 | 0.7 | > 46 | – | > 1000 | – | – | –
CNC(=O)c1ccc(C(F)(F)F)cc1 | > 2.17 | < 0.23 | 5.7 | – | – | 0.5 | 200 (≈ 984 µM) | – | – | –
O=S1(=Nc2cccnc2)CCCCC1 | 0.133 | 0.82 | 5.8 | -2.7 | > 75 | – | – | – | – | 4.8
CS(=O)(=O)Cc1ccc(C(F)(F)F)cc1 | – | – | – | – | – | 1.3 | 400 (≈ 1680 µM) | – | – | –
COc1ccc(N=S2(=O)CCCCC2)cc1 | > 2.17 | < 0.23 | 9.1 | -0.1 | > 51 | – | 900 (≈ 3760 µM) | – | – | –
CN(C)S(=O)(=O)c1ccc(C(F)(F)F)cc1 | – | – | – | – | 47 (≈ 186 µM) | 2.7 | 90 (≈ 355 µM) | – | – | –
CS(=O)(=Nc1ccc(C(F)(F)F)cc1)c1cccnc1 (centres undefined) | > 2.17 | < 0.23 | 8.4 | 2.5 | 47 (≈ 157 µM) | – | – | – | – | –
CCS(C)(=O)=Nc1ccc(C(F)(F)F)cc1 (centres undefined) | > 2.17 | < 0.23 | 7.7 | 2 | > 51 | – | – | – | – | –
